Assay results taken from the NIST ThermoML archive (doi:10.1016/j.fluid.2015.07.032).
Values joined by “and” are separate entries in the source; they are usually repeats but may differ in a detail not shown here. Equal values may be shown once. Numbers after ± are expanded uncertainties.

Tests used:
[1] = Molar enthalpy of transition or fusion; conditions: Crystal; DSC
[2] = for Normal melting temperature: Crystal, DTA; for mass density: 298.15 K, 101.33 kPa, Liquid, Vibrating tube method

Row | SMILES | Molar enthalpy of transition or fusion [1] | Normal melting temperature [2] | mass density [2]
1 | NC(N)=Nc1nc(CSCC/C(N)=N/S(N)(=O)=O)cs1 [famotidine] | 11.5 kcal/mol and 12 kcal/mol |  | 
2 | CC(=O)Oc1ccccc1C(=O)O [2-acetoxybenzoic acid] | 8.01 ± 0.174 kcal/mol | 135.50 ± 0.7 °C | 
3 | CC(=O)Nc1ccc(O)cc1 [N-acetyl-p-aminophenol] | 6.57 ± 0.146 kcal/mol | 169.20 ± 0.7 °C | 
4 | CO [methanol] |  |  | 786.59 ± 0.12 kg/m3
5 | CCO [ethanol] |  |  | 785.02 ± 0.12 kg/m3
6 | N=C(N)N [guanidine] | 8.48 ± 0.184 kcal/mol | 141.00 ± 0.7 °C | 
7 | CCCCCCCCO [octan-1-ol] |  |  | 821.6 ± 0.11 kg/m3
8 | CC(C)O [propan-2-ol] |  |  | 780.8 ± 0.13 kg/m3
